# In patent publication US5312816A, “Method of combatting osteoporosis in mammalian subjects, utilizing organic boron compounds” (priority 1993, dated 1994):
# Tests used:
# 5'-Lipoxygenase = biological target: T1, 5'-Lipoxygenase (Homo sapiens, UniProt P09917); assay: Human leukocyte 5'-lipoxygenase; format: cell-based
# T1 construct: human leukocyte tissue culture cells; endogenous in cells; host or cells: Human peripheral leukocytes, RPMI-1788
# T1 sequence (P09917 1-674): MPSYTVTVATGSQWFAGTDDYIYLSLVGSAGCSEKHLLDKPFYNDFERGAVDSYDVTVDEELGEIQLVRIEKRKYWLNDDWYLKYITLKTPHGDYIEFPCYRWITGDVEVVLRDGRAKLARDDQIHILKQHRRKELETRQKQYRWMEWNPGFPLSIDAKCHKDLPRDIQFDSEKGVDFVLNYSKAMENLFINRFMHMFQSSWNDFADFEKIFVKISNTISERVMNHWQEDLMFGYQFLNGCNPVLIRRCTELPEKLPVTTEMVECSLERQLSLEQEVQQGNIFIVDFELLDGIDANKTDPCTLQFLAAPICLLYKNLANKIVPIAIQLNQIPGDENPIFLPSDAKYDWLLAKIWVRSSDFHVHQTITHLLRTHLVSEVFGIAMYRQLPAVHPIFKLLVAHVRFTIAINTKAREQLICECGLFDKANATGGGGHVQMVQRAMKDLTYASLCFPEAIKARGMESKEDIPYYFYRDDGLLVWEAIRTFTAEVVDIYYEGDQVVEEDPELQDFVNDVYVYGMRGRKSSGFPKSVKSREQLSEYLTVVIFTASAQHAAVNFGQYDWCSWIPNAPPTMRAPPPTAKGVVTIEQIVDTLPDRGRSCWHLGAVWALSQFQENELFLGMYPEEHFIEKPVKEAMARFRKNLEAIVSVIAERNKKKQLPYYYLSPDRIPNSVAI
# Cathepsin D [1] = biological target: T2, Cathepsin D (Mus musculus, UniProt P18242); assay: Mouse hepatic lysosomal cathepsin D activity; format: biochemical
# T2 construct: azocasein assay pH 5.0
# T2 sequence (P18242 65-410): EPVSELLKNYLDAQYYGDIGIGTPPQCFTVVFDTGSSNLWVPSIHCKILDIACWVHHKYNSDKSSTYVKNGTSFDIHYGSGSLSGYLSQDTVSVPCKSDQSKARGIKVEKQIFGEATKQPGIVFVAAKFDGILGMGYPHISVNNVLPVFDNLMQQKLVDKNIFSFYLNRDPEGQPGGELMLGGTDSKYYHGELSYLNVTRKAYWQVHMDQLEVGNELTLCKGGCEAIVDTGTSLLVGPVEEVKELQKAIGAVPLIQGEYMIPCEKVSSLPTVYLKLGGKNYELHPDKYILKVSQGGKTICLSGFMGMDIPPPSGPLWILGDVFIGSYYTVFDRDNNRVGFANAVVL
# Description: (§1) 1. Cf1 male mouse hepatic 10% homogenates in 0.25M sucrose+0.001MEDTA,pH 7.2.
# (§2) Lysosomal Enzymes - free and total [triton X-100].
# (§3) 2. Acid Cathepsin D -azocasein-pH 5.0, hydrolytic azo-peptide produce 366 nm.
# Cathepsin azo casein activity -
# Cathepsin = assay: Human leukocyte cathepsin; format: cell-based; details: Table XIX; read-out: Human Leukocyte IC50 (head gives no enzyme; beside Cathepsin D)
# Description: 5. Human peripheral leukocytes, RPMI-1788
# as §3
# Cf1 male mice [2] = assay: Writhing reflex, 0.6% acetic acid; format: in vivo; details: Mus musculus, ip; Table IV; 8 mg/kg I.P.
# Acid phosphatase [3] = assay: Human osteoporosis fibroblasts acid phosphatase activity; format: cell-based; details: read-out: Acid Phosphatase IC50; Table X; human osteoporosis fibroblasts
# Description: (§4) 1. Acid phosphatase -beta glycerol-3-phosphate, pH 5.0, released IP 720 nm.
# Aryl sulphatase [4] = assay: Human osteoporosis fibroblasts aryl sulphatase activity; format: cell-based; details: read-out: Aryl Sulphatase IC50; Table X; human osteoporosis fibroblasts
# Description: (§5) 3. Aryl sulphatase- p-nitrocatechol sulfate, pH
# (§6) 5. 8 p-nitro-catechol product 510 nm.
# Acid phosphatase [5] = assay: Mouse hepatic lysosomal acid phosphatase activity; format: biochemical; details: mouse hepatic, 60 min incubation
# Description: as §1, §2, §4
# Acid phosphatase activity -
# Prostaglandin synthetase = biological target: T3, Prostaglandin synthetase (Bos taurus, UniProt O62664); assay: Prostaglandin synthetase (cyclooxygenase), purified beef seminal vesicle; format: biochemical; details: Table IX; commercial enzyme preparation; read-out: Beef Prostaglandin Cyclooxygenase IC50
# T3 construct: Prostaglandin synthetase purified beef seminal vesicle; from tissue
# T3 sequence (O62664 25-600): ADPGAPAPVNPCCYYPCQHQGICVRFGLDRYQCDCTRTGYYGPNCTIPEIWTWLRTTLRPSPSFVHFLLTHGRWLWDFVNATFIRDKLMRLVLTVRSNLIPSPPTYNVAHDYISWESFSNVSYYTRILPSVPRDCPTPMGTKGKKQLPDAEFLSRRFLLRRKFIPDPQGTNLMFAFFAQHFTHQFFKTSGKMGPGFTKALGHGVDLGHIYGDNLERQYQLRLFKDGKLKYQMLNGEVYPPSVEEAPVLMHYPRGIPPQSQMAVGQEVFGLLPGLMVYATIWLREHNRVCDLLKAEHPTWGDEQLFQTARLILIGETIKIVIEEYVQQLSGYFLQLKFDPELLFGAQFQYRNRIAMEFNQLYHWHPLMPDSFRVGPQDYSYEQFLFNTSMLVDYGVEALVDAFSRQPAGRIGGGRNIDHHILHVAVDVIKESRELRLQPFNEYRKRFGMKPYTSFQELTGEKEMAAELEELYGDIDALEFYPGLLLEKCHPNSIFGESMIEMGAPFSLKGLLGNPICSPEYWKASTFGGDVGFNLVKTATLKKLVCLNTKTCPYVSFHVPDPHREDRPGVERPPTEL
# Description: (§7) Prostaglandin synthetase purified beef seminal vesicle ^3 H arachidonic acid (86.2 Ci/mmol), tlc separation.
# Cathepsin D [6] = biological target: T4, Cathepsin D (Homo sapiens, UniProt P07339); assay: Human osteoporosis fibroblasts cathepsin D (azo-casein) activity; format: cell-based; details: Table X; human osteoporosis fibroblasts, DMEM +10% FCS + P/S; read-out: Cathepsin D IC50
# T4 construct: azocasein assay pH 5.0
# T4 sequence (P07339 65-412): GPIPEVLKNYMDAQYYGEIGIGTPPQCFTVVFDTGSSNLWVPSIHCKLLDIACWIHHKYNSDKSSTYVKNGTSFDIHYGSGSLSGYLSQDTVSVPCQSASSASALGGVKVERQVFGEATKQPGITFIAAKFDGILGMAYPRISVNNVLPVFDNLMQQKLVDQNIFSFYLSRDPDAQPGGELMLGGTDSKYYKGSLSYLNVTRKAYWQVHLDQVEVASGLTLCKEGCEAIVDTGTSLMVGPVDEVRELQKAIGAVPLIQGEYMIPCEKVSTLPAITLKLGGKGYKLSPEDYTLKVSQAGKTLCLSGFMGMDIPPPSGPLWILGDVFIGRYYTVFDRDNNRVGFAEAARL
# Description: Osteoporosis Human Fibroblast-CRL-1140, Be SA1
# Elastase = assay: Mouse macrophage elastase activity; format: cell-based; details: Table XVIII; mouse macrophage, 60 min incubation; read-out: Elastase IC50
# Description: Elastase- N-succinyl-L-alanyl-L-alanine-p-nitroanilide, pH 8.0, p-nitro anilide 410 nm.
# Aryl sulphatase [7] = assay: Mouse macrophage aryl sulphatase activity; format: cell-based; details: Table XVII; mouse macrophage, 60 min incubation; read-out: Aryl Sulphatase IC50
# Acid phosphatase [8] = assay: Mouse macrophage acid phosphatase activity; format: cell-based; details: Table XVII; mouse macrophage, 60 min incubation; read-out: Acid Phosphatase IC50
# Cathepsin D [9] = biological target: T2, Cathepsin D; assay: Mouse macrophage cathepsin D activity; format: cell-based; details: Table XVII; mouse macrophage, 60 min incubation; read-out: Cathepsin D pH 5.0 IC50
# Description: (§8) 3. Mouse macrophages J774A.1 BALB/c
# as §3
# Cf1 male mice [10] = assay: Anti-inflammatory screen, Winter's test, 2% carrageenan hind foot; format: in vivo; details: Table XIV; unit inferred; unit assumed
# Description: Anti-inflammatory Screen- Cf1 - male mice-Winter's Test 2% carrageenan S.C. plantar surface of hind foot, drugs administered @8 or 10 mg/kg I.P. 2X
# Winter, C.A., et al, Proc. Soc.
# Cf1 male mice [11] = assay: Hot plate tail flick test; format: in vivo; details: Table XIV; unit not given
# Trypsin [12] = assay: Mouse hepatic trypsin activity; format: biochemical; details: Table XVI; 60 min incubation; read-out: Mouse Hepatic Trypsin IC50
# Description: as §1
# 1. Trypsin- N-benzoyl-L-arginine ethyl ester pH 8.0, hydrolytic product 253 nm.
# Commercial Collagenase = assay: Commercial collagenase (type not stated); format: biochemical; details: Table XVI; 60 min incubation
# Description: 3. Collagenase I, Clostridium histolyticum, bone, skin, tendon, blood vessel, dentine, GI. substrate: rat collagen, N-[propionate-2-3-^3 H] propionylated measured as dpm released.
# 4. Collagenase II, Clostridium histolyticum, cartilage collagen.
# Trypsin [13] = assay: Mouse macrophage trypsin (BAEE) activity; format: cell-based; details: Table XVIII; mouse macrophage, 60 min incubation; read-out: Trypsin BAEE IC50
# [14] = biological target: Prostaglandin cyclooxygenase; assay: Mouse macrophage prostaglandin cyclooxygenase activity; format: cell-based; details: Table XVIII; mouse macrophage, 60 min incubation; read-out: Prostaglandin Cyclooxygenase IC50
# Description: as §8, §7
# Aryl sulphatase [15] = assay: Mouse hepatic lysosomal aryl sulphatase activity; format: biochemical; details: Table XV, 60 min incubation
# Description: as §1, §2, §5, §6
# Pg. cyclooxygenase = biological target: T5, Pg. cyclooxygenase (Sus scrofa, UniProt A0A287ANF9); assay: Porcine seminal vesicles Pg. cyclooxygenase; format: biochemical; details: Table XVI; 60 min incubation
# T5 construct: Porcine Seminal; from tissue; the methods section prints beef seminal vesicle
# T5 sequence (A0A287ANF9 25-600): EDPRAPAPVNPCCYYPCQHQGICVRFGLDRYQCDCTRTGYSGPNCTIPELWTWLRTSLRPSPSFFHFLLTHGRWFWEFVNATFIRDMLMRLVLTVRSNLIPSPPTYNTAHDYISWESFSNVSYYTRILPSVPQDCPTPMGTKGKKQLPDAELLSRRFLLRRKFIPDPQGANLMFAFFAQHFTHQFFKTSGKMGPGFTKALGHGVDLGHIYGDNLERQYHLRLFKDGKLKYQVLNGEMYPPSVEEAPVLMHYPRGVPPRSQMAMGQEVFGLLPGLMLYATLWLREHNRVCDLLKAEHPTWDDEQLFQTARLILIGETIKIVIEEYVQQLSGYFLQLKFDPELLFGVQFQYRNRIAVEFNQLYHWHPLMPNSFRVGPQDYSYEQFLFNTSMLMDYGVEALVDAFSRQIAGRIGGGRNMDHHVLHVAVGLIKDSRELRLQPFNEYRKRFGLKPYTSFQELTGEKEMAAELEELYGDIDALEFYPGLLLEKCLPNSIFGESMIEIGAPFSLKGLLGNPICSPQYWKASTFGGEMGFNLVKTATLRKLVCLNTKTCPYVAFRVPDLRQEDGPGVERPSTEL
# Cf1 male mice [16] = assay: Writhing reflex, 0.6% acetic acid; format: in vivo; details: Table XIV; unit inferred; unit assumed
# Description: Writhing reflex- Cf1 -male mice- 0.6% acetic acid I.P. drugs administered @20 mg/kg/ I.P. 20 min. later - the # of stretches/10 min.
# Hendershot, L.C., et al, J.
# Calcium = assay: Serum and urine calcium levels in vivo; details: Cf1 male mice, 8 mg/kg/day I.P. 14 days, N=6
# Phosphorus = assay: Serum and urine inorganic phosphorus levels in vivo; details: Cf1 male mice, 8 mg/kg/day I.P. 14 days, N=6
# Hydroxyproline = assay: Serum and urine hydroxyproline levels in vivo; details: Cf1 male mice, 8 mg/kg/day I.P. 14 days, N=6
# [17] = read-out: Mouse Hepatic Cathepsin D IC50, Table XIX
smiles,measurement,setting,value
CC(C)[Si](OC[C@@H]1CC[C@H](n2ccc(N)[n+]([BH2-]C#N)c2=O)O1)(C(C)C)C(C)C [Compound 42],IC50,5'-Lipoxygenase,6.64 µM
same,IC50,Cathepsin D [1]; [17],30.6 µM
same,IC50,Cathepsin,7.31 µM
"O=C(O)[BH2-][n+]1ccccc1 [Compound 15, Pyridine-carboxyborane]",response vs control in vivo at 8 mg/kg,Cf1 male mice [2],50%
same,IC50,Acid phosphatase [3],18.3 µM
same,IC50,Aryl sulphatase [4],8.16 µM
same,IC50,Acid phosphatase [5]; Table V,10 µM
same,IC50,Prostaglandin synthetase,7.6 µM
same,IC50,"Cathepsin D [1]; Table V, mouse hepatic, 60 min incubation, read-out: Cathepsin D IC50",4.8 µM
same,IC50,Cathepsin D [6],8.16 µM
CC(C)[Si](OC[C@H]1O[C@@H](n2cnc3c(N)ncnc32)C[C@@H]1O[Si](C(C)C)(C(C)C)C(C)C)(C(C)C)C(C)C [Compound 35],IC50,5'-Lipoxygenase,10.1 µM
same,IC50,Cathepsin D [1]; [17],58.1 µM
same,IC50,Cathepsin,33.4 µM
CC(C)[Si](OC[C@H]1O[C@@H](n2cnc3c(=O)[nH]cnc32)C[C@@H]1O[Si](C(C)C)(C(C)C)C(C)C)(C(C)C)C(C)C [Compound 29],IC50,5'-Lipoxygenase,8.85 µM
same,IC50,Cathepsin D [1]; [17],79.6 µM
same,IC50,Cathepsin,31.8 µM
CC#N.CO.CO.CO.C[N+](C)(C)[BH2-]C(=O)[O-].C[N+](C)(C)[BH2-]C(=O)[O-].C[N+](C)(C)[BH2-]C(=O)[O-].C[N+](C)(C)[BH2-]C(=O)[O-].C[N+](C)(C)[BH2-]C(=O)[O-].C[N+](C)(C)[BH2-]C(=O)[O-].O=[N+]([O-])[O-].[Fe+3].[Fe+3].[Fe+3].[O-2] [Compound 24],IC50,Elastase,3.92 µM
same,IC50,Aryl sulphatase [7],1950 nM
same,IC50,Acid phosphatase [8],2090 nM
same,IC50,Acid phosphatase [5]; Table XV,5.6 µM
same,IC50,Cathepsin D [9],2850 nM
same,Anti-Inflammation Cf1 Mice,Cf1 male mice [10],81.6%
same,Tail Flick Mice,Cf1 male mice [11],338
same,IC50,Trypsin [12],9.93 µM
same,IC50,Commercial Collagenase,478 µM
same,IC50,Trypsin [13],2370 nM
same,IC50,"Cathepsin D [1]; Table XV, mouse hepatic, 60 min incubation, read-out: Cathepsin D IC50",6.84 µM
same,IC50,[14],2340 nM
same,IC50,Aryl sulphatase [15],2570 nM
same,IC50,Pg. cyclooxygenase,2900 nM
same,Writhing Reflex Mice,Cf1 male mice [16],42.9%
"COC(=O)[BH2-][NH+](C)C [(CH3)2 NHBH2 COOCH3, Dimethylamine-carbomethoxyborane]",Calcium serum,Calcium,125.4 % Control
same,Calcium urine,Calcium,80.7 % Control
same,Phosphorus serum,Phosphorus,42.8 % Control
same,Phosphorus urine,Phosphorus,67.8 % Control
same,Hydroxyproline serum,Hydroxyproline,84.4 % Control
same,Hydroxyproline urine,Hydroxyproline,50.5 % Control
